Measurements taken from ChEMBL document CHEMBL1201862, “PubChem BioAssay data set” (2004).
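The compound was tested at five concentrations on cells cultured in 96-well plates, with a 48-hour exposure period. The concentration for 50% growth inhibition is given as GI50.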 Calls of active or inactive are those of the source. No stated cut-off is given here; in the data, active = GI50 up to about 1.1 µM and inactive = higher.

Experiments:
Assay in all cases: NCI-60 cell line screen, 48 h
SW-620 = system: SW-620
U-251 = system: U-251
SK-MEL-5 = system: SK-MEL-5
NCI-H522 = system: NCI-H522
NCI/ADR-RES = system: NCI/ADR-RES
SK-MEL-28 = system: SK-MEL-28
HOP-62 = system: HOP-62
ACHN = system: ACHN
T47D = system: T47D
UO-31 = system: UO-31
SF-539 = system: SF-539
SF-295 = system: SF-295
OVCAR-5 = system: OVCAR-5
MOLT-4 = system: MOLT-4
UACC-62 = system: UACC-62
SF-268 = system: SF-268
EKVX = system: EKVX
OVCAR-3 = system: OVCAR-3
BT-549 = system: BT-549
OVCAR-4 = system: OVCAR-4

| SMILES | GI50 (SW-620) | GI50 (U-251) | GI50 (SK-MEL-5) | GI50 (NCI-H522) | GI50 (NCI/ADR-RES) | GI50 (SK-MEL-28) | GI50 (HOP-62) | GI50 (ACHN) | GI50 (T47D) | GI50 (UO-31) | GI50 (SF-539) | GI50 (SF-295) | GI50 (OVCAR-5) | GI50 (MOLT-4) | GI50 (UACC-62) | GI50 (SF-268) | GI50 (EKVX) | GI50 (OVCAR-3) | GI50 (BT-549) | GI50 (OVCAR-4) |
| --- | --- | --- | --- | --- | --- | --- | --- | --- | --- | --- | --- | --- | --- | --- | --- | --- | --- | --- | --- | --- |
| Cc1cc(C)c(S(=O)(=O)N[C@@H](/C=C(\Br)CO)C(C)C)c(C)c1 | 27 µM (inactive) | 25.4 µM (inactive) | 15.8 µM (inactive) | 17.7 µM (inactive) | 36.5 µM (inactive) | 24.9 µM (inactive) | 56.5 µM (inactive) | 30.4 µM (inactive) | 25.9 µM (inactive) | 33 µM (inactive) | 31.8 µM (inactive) | 30.2 µM (inactive) | 34.3 µM (inactive) | 24.2 µM (inactive) | 13.2 µM (inactive) | 30.7 µM (inactive) | 35.6 µM (inactive) | 21.2 µM (inactive) | 40.3 µM (inactive) | – |
| O=C1CC(=O)NC(NN2C(=O)CSC2c2ccc(Cl)c(Cl)c2)=N1 (centres undefined) | > 100 µM (inactive) | > 100 µM (inactive) | > 100 µM (inactive) | 71.8 µM (inactive) | > 100 µM (inactive) | > 100 µM (inactive) | > 100 µM (inactive) | > 100 µM (inactive) | > 100 µM (inactive) | > 100 µM (inactive) | > 100 µM (inactive) | > 100 µM (inactive) | > 100 µM (inactive) | 23.3 µM (inactive) | 42.6 µM (inactive) | > 100 µM (inactive) | – | > 100 µM (inactive) | > 100 µM (inactive) | > 100 µM (inactive) |
| CCOC(=O)c1nnn(CCCCO)c1C(=O)OCC | > 100 µM (inactive) | > 100 µM (inactive) | > 100 µM (inactive) | – | > 100 µM (inactive) | > 100 µM (inactive) | > 100 µM (inactive) | > 10 µM (inactive) | > 100 µM (inactive) | > 100 µM (inactive) | > 100 µM (inactive) | > 100 µM (inactive) | – | > 100 µM (inactive) | > 100 µM (inactive) | > 100 µM (inactive) | > 100 µM (inactive) | – | > 100 µM (inactive) | > 100 µM (inactive) |
| CO[C@@]12C[C@@H](C)[C@]34O[C@H]3C[C@]3(C)O[C@]43CC1=C(C)C(=O)O2 | > 100 µM (inactive) | > 100 µM (inactive) | > 100 µM (inactive) | > 100 µM (inactive) | > 100 µM (inactive) | > 100 µM (inactive) | – | > 100 µM (inactive) | > 100 µM (inactive) | > 100 µM (inactive) | > 100 µM (inactive) | > 100 µM (inactive) | > 100 µM (inactive) | < 0.01 µM (active) | > 100 µM (inactive) | > 100 µM (inactive) | > 100 µM (inactive) | > 100 µM (inactive) | > 100 µM (inactive) | > 100 µM (inactive) |
| O=C1Nc2ccccc2/C1=C\c1c(Cl)nc2n1CCS2 | 31.3 µM (inactive) | 22.1 µM (inactive) | 14.6 µM (inactive) | 16.2 µM (inactive) | 23.6 µM (inactive) | 32.4 µM (inactive) | 29 µM (inactive) | 38.3 µM (inactive) | 19.6 µM (inactive) | 27 µM (inactive) | – | 25.2 µM (inactive) | 29 µM (inactive) | 30.4 µM (inactive) | 13.5 µM (inactive) | 27.4 µM (inactive) | 22.9 µM (inactive) | 20.4 µM (inactive) | 19.5 µM (inactive) | 31.5 µM (inactive) |
| CC1=CC(=O)C[C@]2(C)[C@@H](O)CC(C(C)CO)C[C@@H]12 (some centres undefined) | > 100 µM (inactive) | > 100 µM (inactive) | > 100 µM (inactive) | – | > 100 µM (inactive) | > 100 µM (inactive) | > 100 µM (inactive) | > 100 µM (inactive) | > 100 µM (inactive) | > 100 µM (inactive) | > 100 µM (inactive) | > 100 µM (inactive) | > 100 µM (inactive) | > 100 µM (inactive) | > 100 µM (inactive) | > 100 µM (inactive) | > 100 µM (inactive) | > 100 µM (inactive) | > 100 µM (inactive) | > 100 µM (inactive) |
| C=CCN1C(=O)/C(=C/c2ccccc2)N=C1SC1OC(COC(C)=O)C(OC(C)=O)C(OC(C)=O)C1OC(C)=O (centres undefined) | 28.5 µM (inactive) | 19.2 µM (inactive) | – | 16.3 µM (inactive) | 26.2 µM (inactive) | 26.1 µM (inactive) | 37.8 µM (inactive) | 22.9 µM (inactive) | 27.2 µM (inactive) | – | – | 50.1 µM (inactive) | 26 µM (inactive) | 19.9 µM (inactive) | 14.4 µM (inactive) | 21.4 µM (inactive) | 15.7 µM (inactive) | 19.3 µM (inactive) | 28.6 µM (inactive) | 27.2 µM (inactive) |
| CC1(C)OC([C@H](O)CO)C([C@H]2NCCS2)O1 (some centres undefined) | > 100 µM (inactive) | > 100 µM (inactive) | > 100 µM (inactive) | > 100 µM (inactive) | > 100 µM (inactive) | > 100 µM (inactive) | > 100 µM (inactive) | > 100 µM (inactive) | > 100 µM (inactive) | > 100 µM (inactive) | – | > 100 µM (inactive) | > 100 µM (inactive) | > 100 µM (inactive) | > 100 µM (inactive) | > 100 µM (inactive) | > 100 µM (inactive) | > 100 µM (inactive) | > 100 µM (inactive) | > 100 µM (inactive) |
| CNC1=CC(=O)C2=C(C1=O)[C@H]1CC[C@]3(C)C(=O)CC[C@H]3[C@@H]1CC2 | 22.9 µM (inactive) | 21.8 µM (inactive) | 8.18 µM (inactive) | – | 13 µM (inactive) | 18.2 µM (inactive) | 15.2 µM (inactive) | 21.6 µM (inactive) | 18.9 µM (inactive) | 18.8 µM (inactive) | 18.4 µM (inactive) | 15.3 µM (inactive) | 22.7 µM (inactive) | 11.1 µM (inactive) | 14 µM (inactive) | – | 15.3 µM (inactive) | 1.16 µM (inactive) | 16.4 µM (inactive) | 9.38 µM (inactive) |
| O=C1CCCC1C(=O)Nc1ccc2ccccc2c1 (centres undefined) | > 100 µM (inactive) | > 100 µM (inactive) | > 100 µM (inactive) | 49 µM (inactive) | > 100 µM (inactive) | > 100 µM (inactive) | > 100 µM (inactive) | > 100 µM (inactive) | 62.5 µM (inactive) | > 100 µM (inactive) | – | > 100 µM (inactive) | > 100 µM (inactive) | 36.2 µM (inactive) | > 100 µM (inactive) | > 100 µM (inactive) | 32.1 µM (inactive) | > 100 µM (inactive) | > 100 µM (inactive) | > 100 µM (inactive) |
| Cn1c(=O)c2nc(/N=N/Nc3nncs3)[nH]c2n(C)c1=O | > 100 µM (inactive) | > 100 µM (inactive) | > 100 µM (inactive) | – | > 100 µM (inactive) | > 100 µM (inactive) | > 100 µM (inactive) | > 100 µM (inactive) | > 100 µM (inactive) | > 100 µM (inactive) | > 100 µM (inactive) | > 100 µM (inactive) | > 100 µM (inactive) | > 100 µM (inactive) | > 100 µM (inactive) | > 100 µM (inactive) | > 100 µM (inactive) | > 100 µM (inactive) | > 100 µM (inactive) | > 100 µM (inactive) |
| N=c1oc2ccc([N+](=O)[O-])cc2cc1C(=O)NCc1ccccc1 | 20 µM (inactive) | 28 µM (inactive) | 18.7 µM (inactive) | 12.8 µM (inactive) | 16.5 µM (inactive) | 20.3 µM (inactive) | 38.5 µM (inactive) | 16.7 µM (inactive) | 17.9 µM (inactive) | 18 µM (inactive) | 17.7 µM (inactive) | 36.4 µM (inactive) | 32.9 µM (inactive) | 27.9 µM (inactive) | 20.2 µM (inactive) | 22.3 µM (inactive) | 38.8 µM (inactive) | – | 14 µM (inactive) | 24.6 µM (inactive) |
| Cc1c2ccccc2c(/C=N/NC(=O)CSCC(=O)N/N=C/c2c3ccccc3c(C)c3ccccc23)c2ccccc12 | > 57.4 µM (inactive) | 29.6 µM (inactive) | 54.7 µM (inactive) | – | > 63.5 µM (inactive) | > 60.7 µM (inactive) | 12.9 µM (inactive) | > 47.8 µM (inactive) | > 25.6 µM (inactive) | > 84.1 µM (inactive) | 18.1 µM (inactive) | 16 µM (inactive) | 38.9 µM (inactive) | 27.8 µM (inactive) | > 64.7 µM (inactive) | 23.8 µM (inactive) | > 59 µM (inactive) | 47.5 µM (inactive) | 40.7 µM (inactive) | > 42.1 µM (inactive) |
| CCOC(=O)c1c(NC(=O)c2cccs2)sc2c1CCC2 | – | – | > 100 µM (inactive) | – | > 100 µM (inactive) | – | > 100 µM (inactive) | > 100 µM (inactive) | > 100 µM (inactive) | > 100 µM (inactive) | > 100 µM (inactive) | > 100 µM (inactive) | > 100 µM (inactive) | > 100 µM (inactive) | > 100 µM (inactive) | > 100 µM (inactive) | > 100 µM (inactive) | > 100 µM (inactive) | > 100 µM (inactive) | – |
| Cc1nn(C(=O)c2ccncc2)c2c1C(c1ccc(Cl)cc1)SC(=N)N2 (centres undefined) | > 10 µM (inactive) | – | > 10 µM (inactive) | – | > 10 µM (inactive) | > 10 µM (inactive) | > 10 µM (inactive) | > 10 µM (inactive) | > 10 µM (inactive) | – | > 10 µM (inactive) | > 10 µM (inactive) | > 10 µM (inactive) | > 10 µM (inactive) | > 10 µM (inactive) | > 10 µM (inactive) | > 10 µM (inactive) | > 10 µM (inactive) | > 10 µM (inactive) | > 10 µM (inactive) |
